Patent US6958318B2, “Recombinant bacterial cells for delivery of PNP to tumor cells” (The UAB Research Foundation, priority 1993, dated 2005)
Values joined by “and” are separate entries in the source; they are usually repeats but may differ in a detail not shown here. Identical values can stand only once.

System: D54-PNP tumors
Assay: E. coli PNP-transduced D54 glioma tumors in nude mice
Type: in vivo
Description: Female athymic nude mice (nu/nu) were implanted sc with 2×10^7 cells of either D54 parental tumor cells (D54-wt) or D54 tumor cells that had been transduced with the E. coli PNP (D54-PNP). After the tumors had grown to approximately 150 mg, they were treated ip with either vehicle or 67 mg/kg of MeP-dR (IP) once a day for 3 days (days 6, 7 and 8 after implantation). The tumor sizes were measured twice a week after treatment.
A confirmation experiment was set up exactly as described above, except that animals were treated with two doses of MeP-dR (45 and 67 mg/kg) (FIGS. 10 and 11). The results of this experiment were similar (Table V). There were 8 of 10 complete regressions in mice bearing the D54-PNP tumors that were treated with 67 mg/kg of MeP-dR. In 4 mice the tumors subsequently returned and grew. There were still 4 of 10 tumor-free survivors 60 days after the treatment had stopped. […] There were 2 of 10 complete regressions and 3 partial responses. […] The delay in the time required to double twice due to treatment with MeP-dR was 5 to 6 days in the non-transduced tumors and greater than 24 days in transduced tumors. In this experiment, the growth rate of the D54-PNP tumors was considerably slower than it was in the first experiment. There was no change in the growth rate of the D54-wt tumors. The reason for the slow growth rate of the D54-PNP tumors in this experiment is not known. […] (In other words, if a tumor was too small to measure, it was not included in the average size). This means that the overall tumor regressions in the D54 PNP group are actually much more pronounced than they appear in FIGS. 8-11.

SMILES: Cc1ncnc2c1ncn2[C@H]1C[C@H](O)[C@@H](CO)O1 [MeP-dR, 9-(β-D-2-deoxyerythropentofuranosyl)-6-methylpurine]
- Loss of weight in treated animals (67 mg/kg, regardless of tumor implanted): little or no loss of weight
- Effect on E. coli PNP expressing D54 tumors, in words (45 or 67 mg/kg): caused regression
- Days Delay (T-C) (Table IV, 67 mg/kg): >39 days
- Doubling time (Table IV, 67 mg/kg): >56
- Nonspecific Deaths/Total (Table IV, 67 mg/kg): 0/6
- Regressions Partial (Table IV, 67 mg/kg): 0/6
- Regressions Complete (Table IV, 67 mg/kg IP once a day for three days, 67 mg/kg): 6 of 6 and 6/6
- Tumor-free Survival (Table IV, 67 mg/kg, followed 65 days, 67 mg/kg): Four and 4/6
- Days Delay (T-C) (Table V, 45 mg/kg): >24 days
- Doubling time (Table V, 45 mg/kg): >54
- Nonspecific Deaths/Total (Table V, 45 mg/kg): 0/10
- Regressions Partial (Table V, 45 mg/kg): 3 and 3/10
- Tumor-free Survival (Table V, 45 mg/kg): no tumor-free survivors and 0/10
- Regressions Complete (Table V, 45 mg/kg IP once a day for three days, 45 mg/kg): 2 of 10 and 2/10
- Days Delay (T-C) (Table V, 67 mg/kg): >25 days
- Doubling time (Table V, 67 mg/kg): >55
- Nonspecific Deaths/Total (Table V, 67 mg/kg): 1/10
- Regressions Partial (Table V, 67 mg/kg): 1/10
- Regressions Complete (Table V, 67 mg/kg IP once a day for three days, 67 mg/kg): 8 of 10 and 8/10
- Tumor-free Survival (Table V, 67 mg/kg, 60 days after treatment stopped, 67 mg/kg): 4 of 10 and 4/10
- Activity against D54 glioma tumors expressing the E. coli PNP gene (previous studies): good activity
- Delay in the time required to double twice (transduced tumors, 45 and 67 mg/kg): greater than 24 days
